Read-outs that look alike come from different tables or passages of the source.
Key:
MMP-13 = MMP-13 (Homo sapiens, UniProt P45452); assay: MMP-13 inhibition (thiopeptide or fluorescent peptide substrate); assay type: biochemical; conditions: read-out: MMP-13 IC50
Experimental: (§1) The enzyme activity is measured by the rate of the color increase. The thiopeptide substrate is made up fresh as a 20 mM stock in 100% DMSO and the DTNB is dissolved in 100% DMSO as a 100 mM stock and stored in the dark at room temperature. Both the substrate and DTNB are diluted together to 1 mM with substrate buffer (50 mM HEPES pH 7.5, 5 mM CaCl2) before use. The stock of enzyme is diluted with buffer (50 mM HEPES, pH 7.5, 5 mM CaCl2, 0.02% Brij) to the desired final concentration.
(§2) Alternatively, a fluorescent peptide substrate is used. In this test procedure, the peptide substrate contains a fluorescent group and a quenching group. Upon cleavage of the substrate by an MMP, the fluorescence that is generated is quantitated on the fluorescence plate reader. The assay is run in HCBC assay buffer (50 mM HEPES, pH 7.0, 5 mM Ca^+2, 0.02% Brij, 0.5% Cysteine), with human recombinant MMP-1, MMP-9, or MMP-13. […] For the assay, substrate and enzymes are diluted in HCBC buffer to the desired concentrations. Compounds are added to the 96 well plate containing enzyme and the reaction is started by the addition of substrate.
(§3) For either the thiopeptide or fluorescent peptide test procedures, the slope of the line is calculated and represents the reaction rate. The linearity of the reaction rate is confirmed (r^2>0.85). The mean (x±sem) of the control rate is calculated and compared for statistical significance (p<0.05) with drug-treated rates using Dunnett's multiple comparison test.

[1] = target: TNF-α converting enzyme (TACE) (Homo sapiens, UniProt P78536); assay: TACE inhibition (fluorescent peptidyl substrate); assay type: biochemical
Experimental: Using 96-well black microtiter plates, each well receives a solution composed of 10 μL TACE (final concentration 1 μg/mL), 70 μL Tris buffer, pH 7.4 containing 10% glycerol (final concentration 10 mM), and 10 μL of test compound solution in DMSO (final concentration 1 μM, DMSO concentration <1%) and incubated for 10 minutes at room temperature.
The reaction is read (excitation 340 nm, emission 420 nm) for 10 min. and the increase in fluorescence over time is plotted as a linear line. The slope of the line is calculated and represents the reaction rate.
The linearity of the reaction rate is confirmed (r^2>0.85). The mean (x±sem) of the control rate is calculated and compared for statistical significance (p<0.05) with drug-treated rates using Dunnett's multiple comparison test.

MMP-9 = MMP-9 (Homo sapiens, UniProt P14780); assay: MMP-9 inhibition (thiopeptide or fluorescent peptide substrate); assay type: biochemical; conditions: read-out: MMP-9 IC50
Sequence of MMP-9 (P14780 94-707): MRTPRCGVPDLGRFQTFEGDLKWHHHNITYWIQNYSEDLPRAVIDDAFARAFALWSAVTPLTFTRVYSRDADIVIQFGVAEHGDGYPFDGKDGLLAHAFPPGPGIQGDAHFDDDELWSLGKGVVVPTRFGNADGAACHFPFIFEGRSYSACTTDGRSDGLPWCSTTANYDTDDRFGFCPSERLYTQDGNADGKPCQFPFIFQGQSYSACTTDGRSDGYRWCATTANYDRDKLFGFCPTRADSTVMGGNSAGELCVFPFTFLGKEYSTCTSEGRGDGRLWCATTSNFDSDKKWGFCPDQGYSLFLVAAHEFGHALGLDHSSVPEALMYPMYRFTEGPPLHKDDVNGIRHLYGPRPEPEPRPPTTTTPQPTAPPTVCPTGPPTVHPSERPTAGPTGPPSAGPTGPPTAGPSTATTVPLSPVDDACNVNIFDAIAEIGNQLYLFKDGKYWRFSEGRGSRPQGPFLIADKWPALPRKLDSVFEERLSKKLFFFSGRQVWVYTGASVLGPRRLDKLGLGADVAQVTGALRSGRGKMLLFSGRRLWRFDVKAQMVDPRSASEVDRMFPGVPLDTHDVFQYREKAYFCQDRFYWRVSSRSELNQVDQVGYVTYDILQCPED
Experimental: as §1, §2, §3

MMP-1 = target: T1, MMP-1 (Homo sapiens, UniProt P03956); assay: MMP-1 inhibition (thiopeptide or fluorescent peptide substrate); assay type: biochemical; conditions: read-out: MMP-1 IC50
T1 sequence (P03956 100-469): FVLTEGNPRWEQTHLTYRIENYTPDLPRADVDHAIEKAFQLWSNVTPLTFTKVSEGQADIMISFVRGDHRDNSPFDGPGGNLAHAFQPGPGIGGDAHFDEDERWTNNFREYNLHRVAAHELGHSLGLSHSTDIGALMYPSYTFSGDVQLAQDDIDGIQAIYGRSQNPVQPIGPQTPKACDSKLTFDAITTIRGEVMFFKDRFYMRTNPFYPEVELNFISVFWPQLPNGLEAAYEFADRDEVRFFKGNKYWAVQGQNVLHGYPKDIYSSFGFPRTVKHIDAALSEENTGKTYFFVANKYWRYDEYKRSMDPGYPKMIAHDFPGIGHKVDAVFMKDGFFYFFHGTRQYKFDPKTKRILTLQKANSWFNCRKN

Sequence of TNF-α converting enzyme (TACE) (P78536 215-824, species assumed): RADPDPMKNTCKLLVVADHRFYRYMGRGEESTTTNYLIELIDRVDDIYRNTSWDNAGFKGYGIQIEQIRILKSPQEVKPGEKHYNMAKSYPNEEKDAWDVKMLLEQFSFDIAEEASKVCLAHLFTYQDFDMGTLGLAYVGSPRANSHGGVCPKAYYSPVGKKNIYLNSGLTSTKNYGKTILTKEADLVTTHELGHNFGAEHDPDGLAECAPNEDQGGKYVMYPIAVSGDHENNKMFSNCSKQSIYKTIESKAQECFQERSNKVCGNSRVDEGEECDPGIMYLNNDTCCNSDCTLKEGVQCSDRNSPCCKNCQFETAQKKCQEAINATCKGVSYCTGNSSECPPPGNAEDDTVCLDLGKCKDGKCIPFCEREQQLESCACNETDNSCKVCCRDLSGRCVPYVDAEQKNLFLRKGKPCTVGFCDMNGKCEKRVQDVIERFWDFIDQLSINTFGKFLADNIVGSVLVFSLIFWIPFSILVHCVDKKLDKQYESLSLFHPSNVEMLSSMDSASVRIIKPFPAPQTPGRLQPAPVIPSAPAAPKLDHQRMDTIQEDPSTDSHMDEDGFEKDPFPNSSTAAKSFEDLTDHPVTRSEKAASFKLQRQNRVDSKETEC

Row | Structure (SMILES) | IC50 (MMP-13) | IC50 ([1]; read-out: TACE IC50) | IC50 (MMP-9) | melting point | IC50 (MMP-1) | IC50 (MMP-13; Table 9) | IC50 ([1]; Table 9, read-out: TACE IC50) | IC50 (MMP-1; Table 9) | IC50 (MMP-9; Table 9) | IC50 ([1]; TACE IC50)
1 | CC#CCOc1ccc(S(=O)(=O)N(C)[C@@H](C(=O)NO)[C@H]2CC[C@H](O)CC2)cc1 [Example 130] | 15 nM | 23 nM | 30 nM | 195 to 197 °C | 169 nM | – | – | – | – | –
2 | CC#CCOc1ccc(S(=O)(=O)N(C)C2(C(=O)NO)CCCCC2)cc1 [Example 136, 1-[{[4-(2-Butynyloxy)phenyl]sulfonyl}(methyl)amino]-N-hydroxycyclohexanecarboxamide] | 1630 nM | 574 nM | 3750 nM | 89 to 92 °C | 682 nM | – | – | – | – | –
3 | CC#CCOc1ccc(S(=O)(=O)N(Cc2cccnc2)C2(C(=O)NO)CCCCC2)cc1 [Example 137, 1-[{[4-(2-Butynyloxy)phenyl]sulfonyl}(3-pyridinylmethyl)amino]N-hydroxycyclohexanecarboxamide] | 48 nM | 191 nM | 79 nM | 179 to 181 °C | 482 nM | – | – | – | – | –
4 | CC#CCOc1ccc(S(=O)(=O)N(C)C(C(=O)NO)C(C)(C)SCCN2CCN(C)CC2)cc1 (stereo not drawn) [Example 141] | 7.6 nM | 101 nM | 8.3 nM | 110 to 115 °C | 17 nM | – | – | – | – | –
5 | CC#CCOc1ccc(S(=O)(=O)N(C)C(C(=O)NO)C(C)(C)SCCN(CC)CC)cc1 (stereo not drawn) [Example 142, 2-({[4-(2-Butynyloxy)phenyl]sulfonyl)(methyl)amino]-N-hydroxy-3-methyl-3-{[2-(diethylamino)ethyl]sulfanyl}butanamide] | 14 nM | 131 nM | 10 nM | 55 to 57 °C | 72 nM | – | – | – | – | –
6 | CC#CCOc1ccc(S(=O)(=O)N(C)C(C(=O)NO)C(C)(C)SCCCN2CCOCC2)cc1 (stereo not drawn) [Example 146] | 3.6 nM | 132 nM | 5.3 nM | 48 to 52 °C | 13 nM | – | – | – | – | –
7 | CC#CCOc1ccc(S(=O)(=O)N(C)C(C(=O)NO)C(C)(C)SCCCN2CCN(C)CC2)cc1 (stereo not drawn) [Example 147, 2-({[4-(2-Butynyloxy)phenyl]sulfonyl)(methyl)amino]-N-hydroxy-3 Methyl-3-{[2(4-methyl-1-ethyl-1-piperazinyl)propyl]sulfanyl}butanamide] | 5.3 nM | 157 nM | 5.3 nM | 58 to 62 °C | 21 nM | – | – | – | – | –
8 | CC#CCOc1ccc(S(=O)(=O)N(C)C(C(=O)NO)C(C)(C)SC)cc1 (stereo not drawn) [Example 149, 2-[(4-but-2-ynyloxy-Benenesulfonyl)-methyl-amino]-N-hydroxy-3-methyl-3-methylsulfanyl-butyramide] | 4.6 nM | 29 nM | 13 nM | 132 to 135 °C | 17 nM | – | – | – | – | –
9 | CC#CCOc1ccc(S(=O)(=O)N(C)C(C(=O)NO)C(C)(C)SCc2ccccc2)cc1 (stereo not drawn) [Example 153, 2-[(4-but-2-ynyloxy-Benenesulfonyl)-methyl-amino]-N-hydroxy-3-methyl-3-benzylsulfanyl-butyramide] | 2 nM | 160 nM | 5.5 nM | 156 to 158 °C | 13 nM | – | – | – | – | –
10 | CC#CCOc1ccc(S(=O)(=O)N(Cc2cccnc2)C(CSCc2ccccc2)C(=O)NO)cc1 (stereo not drawn) [Example 157, 3-(Benzylthio)-2-[[[4-(2-butynyloxy)phenyl]sulfonyl]pyridin-3-ylmethylamino]-N-hydroxypropanamide] | 3.8 nM | 98 nM | 32 nM | 74 to 78 °C | 111 nM | – | – | – | – | –
11 | CC#CCOc1ccc(S(=O)(=O)N(C)C(C(=O)NO)c2ccc(OCCN(C)C(=O)OC(C)(C)C)cc2)cc1 (stereo not drawn) [Example 191, tert-Butyl(2-{4-[1-({[4-(2-Butynyloxy)phenyl]sulfonyl}(methyl)amino)-2-(hydroxyamino)-2-oxoethyl)phenoxy]ethyl)-(methyl)carbamate] | 60 nM | 64 nM | 37 nM | 62 °C (dec.) | 1150 nM | – | – | – | – | –
12 | CC#CCOc1ccc(S(=O)(=O)N(C)C(C(=O)NO)c2ccc(OCCCNC(=O)OCC)cc2)cc1 (stereo not drawn) [Example 193, Ethyl 3-{4-[1-[{[4-(2-Butynyloxy)phenyl]sulfonyl}(methyl)amino]-2-(hydroxyamino)-2-oxoethyl]phenoxy}propylcarbamate] | 29.3 nM | 61 nM | – | 60 to 62 °C | ~1000 nM | – | – | – | – | –
13 | CC#CCOc1ccc(S(=O)(=O)N(C)C(C(=O)NO)c2ccc(OCCCNC(C)=O)cc2)cc1 (stereo not drawn) [Example 194] | 15 nM | 61 nM | – | 88 °C (dec.) | 592 nM | – | – | – | – | –
14 | CC#CCOc1ccc(S(=O)(=O)N(C)C(C(=O)NO)c2ccc(OCCCNC(=O)OCCCC)cc2)cc1 (stereo not drawn) [Example 195, Butyl 3-{4-[1-[{[4-(2-Butynyloxy)phenyl]sulfonyl}(methyl)amino]-2-(hydroxyamino)-2-oxoethyl]phenoxy}propylcarbamate] | 28 nM | 122 nM | – | 50 to 55 °C | > 1000 nM | – | – | – | – | –
15 | CC#CCOc1ccc(S(=O)(=O)N(C)C(C(=O)NO)c2ccc(OCCCNC(=O)OCc3ccccc3)cc2)cc1 (stereo not drawn) [Example 196, Benzyl 3-{4-[1-[{[4-(2-Butynyloxy)phenyl]sulfonyl}(methyl)amino]-2-(hydroxyamino)-2-oxoethyl]phenoxy}propylcarbamate] | 31 nM | 109 nM | – | 48 to 50 °C | – | – | – | – | – | –
16 | CC#CCOc1ccc(S(=O)(=O)N(C)C(C(=O)NO)c2ccc(OCCCNS(C)(=O)=O)cc2)cc1 (stereo not drawn) [Example 197, 2-[{[4-(2-Butynyloxy)phenyl]sulfonyl}(methyl)amino]-N-hydroxy-2-(4-{3-[(methylsulfonyl)amino]propoxy}phenyl)acetamide] | 24 nM | 25 nM | – | 65 to 70 °C | 569 nM | – | – | – | – | –
17 | CC#CCOc1ccc(S(=O)(=O)N(C)C(C(=O)NO)c2ccc(OCCCNC(=O)Nc3ccccc3)cc2)cc1 (stereo not drawn) [Example 198, 2-(4-{3-[(Anilinocarbonyl)amino]propoxy}phenyl)-2-[{[4-(2-butynyloxy)phenyl]sulfonyl}(methyl)amino]-N-hydroxyacetamide] | 11 nM | 62 nM | – | 135 °C (dec.) | 834 nM | – | – | – | – | –
18 | CC#CCOc1ccc(S(=O)(=O)NC(C(=O)NO)c2ccc(OCCN3CCN(C(=O)OC(C)(C)C)CC3)cc2)cc1 (stereo not drawn) [Example 202, tert-Butyl 4-(2-{4-[1-({[4-(2-Butynyloxy)phenyl]sulfonyl}amino)-2-(hydroxyamino)-2-oxoethyl)phenoxy]ethyl)-1-piperazinecarboxylate] | 345 nM | 113 nM | – | 92 to 95 °C | > 10000 nM | – | – | – | – | –
19 | CC#CCOc1ccc(S(=O)(=O)NC(C(=O)NO)c2ccc(OCCN3CCOCC3)cc2)cc1 (stereo not drawn) [Example 206, 2-({[4-(2-Butynyloxy)phenyl]sulfonyl}amino)-N-hydroxy-2-{4-[2-(4-morpholinyl)ethoxy]phenyl}acetamide] | 147 nM | 33 nM | – | 80 to 86 °C | > 10000 nM | – | – | – | – | –
20 | CC#CCOc1ccc(S(=O)(=O)N(C)C(C(=O)NO)c2ccc(Cl)cc2)cc1 (stereo not drawn) [Example 212, 2-[{[4-(2-Butynyloxy)phenyl]sulfonyl}(methyl)amino]-2-(4-chlorophenyl)-N-hydroxyacetamide] | 36 nM | 62 nM | – | 170 to 172 °C | 798 nM | – | – | – | – | –
21 | CC#CCOc1ccc(S(=O)(=O)N(C)C(CCCSc2ccc(Cl)cc2)C(=O)NO)cc1 (stereo not drawn) [Example 213, 2-[{[4-(2-Butynyloxy)phenyl]sulfonyl}(methyl)amino]-5[(4-chlorophenyl)sulfanyl]-N-hydroxypentanamide] | 9 nM | 210 nM | – | 144 to 145.5 °C | 453 nM | – | – | – | – | –
22 | CC#CCOc1ccc(S(=O)(=O)N2CCSC3(CCCC3)C2C(=O)NO)cc1 (stereo not drawn) [Example 236] | – | – | – | 206 to 208 °C | – | 11 nM | 43 nM | 24 nM | – | –
23 | CC#CCOc1ccc(S(=O)(=O)N2CCSCC2C(=O)NO)cc1 (stereo not drawn) [Example 239] | – | – | – | 150 to 154 °C | – | 12 nM | 2.9 nM | – | 21 nM | –
24 | CC#CCOc1ccc(S(=O)(=O)N2CCOCC2C(=O)NO)cc1 (stereo not drawn) [Example 240, 4-([4-(2-Butynyloxy)phenyl]sulfonyl}-N-hydroxy-3-morpholinecarboxamide] | – | – | – | 68 to 72 °C | – | 26 nM | – | – | 170 nM | 4.5 nM
25 | CC#CCOc1ccc(S(=O)(=O)N2CCSC3(CCN(C)CC3)C2C(=O)NO)cc1 (stereo not drawn) [Example 242, 9-Methyl-4-{[4-(2-butynyloxy)phenyl]sulfonyl}-N-hydroxy-1-thia-4,9-diazaspiro[5.5]undecane-5-carboxamide] | – | – | – | 195 to 198 °C | – | – | 869 nM | – | – | –

From patent publication US6716833B2, “Acetylenic α-amino acid-based sulfonamide hydroxamic acid tace inhibitors” (priority 1999, dated 2004)
